Assay [1] has as its target T1, PD-1/PD-L1 interaction (Homo sapiens, UniProt Q9NZQ7).
T1 construct: expressed in transfected cells; host or cells: CHO cells (aAPC-PD-L1) co-cultured with Jurkat cells overexpressing PD-1 and an NFAT-luciferase reporter
Nature of the assay: PD-1/PD-L1 NFAT reporter co-culture assay. The class given is cell-based. The note with it: Jurkat PD-1 NFAT-luciferase cells co-cultured with aAPC-PD-L1 CHO cells, 6 hrs at 37° C.; read-out: EC50 NFAT Luciferase. In outline: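 Jurkat cells overexpressing PD-1 with NFAT-luciferase mixed with compounds and plated onto CHO aAPCs expressing anti-CD3 and PD-L1, RPMI with 2% FBS. Co-culture 6 h at 37 °C; luminescence read with ONE-Glo. EC50 from four-parameter fit.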

Assay [2] has as its target T2, interaction between the recombinant extracellular domain (ECD) of PD-1 and native cell-bound PD-L1 (Homo sapiens, UniProt Q9NZQ7).
T2 construct: expressed in transfected cells
Briefly: CHO/PD-L1 cell capture assay. The class given is cell-based. The note with it: CHO cells overexpressing PD-L1, pre-incubated 1 hr with compound, captured on biotinylated Fc-PD-1 coated plates, 75 min at room temperature. On the procedure:
EC50-CHO/PD-L1-Capture Assay:
Compounds were tested in a cell capture assay to determine if they can specifically block the interaction between the recombinant extracellular domain (ECD) of PD-1 and native cell-bound PD-L1. Binding affinity of stable CHO cells overexpressing PD-L1 with its cognate recombinant ligand coated on plates was measured by counting the number of ‘captured’ cells. High-capacity streptavidin- coated plates were incubated with biotylated-Fc-PD-1 for 2 hours in PBS. Unbound ligand was washed out. CHO-PD-L1 cells (resuspended in PBS pH 7.4, 0.5 mM EDTA, and 2% bovine serum albumin) were pre-incubated for 1 hr with compound, dispensed into each PD-1 ECD coated well and then incubated for 75 min at room temperature. To stop the capture assay, a fixative/staining solution (final concentrations are 1.3% glutaraldehyde and 1.67 μM Draq5) was gently added to the cells and incubated for 2 hrs at room temperature. Unbound cells were then washed out and ‘captured’ cells were enumerated using a high-content microscopy system. EC50 values were calculated from the fit of the dose-response curves to a four-parameter equation. Representative data are shown below in Table 2.

T1 sequence (Q9NZQ7 19-290): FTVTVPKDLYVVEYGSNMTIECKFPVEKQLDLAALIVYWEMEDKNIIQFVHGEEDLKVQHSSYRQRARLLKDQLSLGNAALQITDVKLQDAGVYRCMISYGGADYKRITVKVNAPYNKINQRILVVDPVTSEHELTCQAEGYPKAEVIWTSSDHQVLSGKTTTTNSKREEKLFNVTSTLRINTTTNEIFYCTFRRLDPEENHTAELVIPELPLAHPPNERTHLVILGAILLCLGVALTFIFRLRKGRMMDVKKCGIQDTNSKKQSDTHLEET
T2 sequence (Q9NZQ7 19-290): as above

The term EC50 denotes the concentration needed to bring the measured effect to its halfway point. Consider `Cc1c(COc2cc(OCc3cncc(C#N)c3)c(CNC[C@@H](O)CC(=O)O)cc2Cl)cccc1-c1cccc(-c2ccc3cc(CNC[C@@H](O)CC(=O)O)ccc3c2)c1C` [Example 31, (S)-4-(((6-(3′-((4-((((S)-3-carboxy-2-hydroxypropyl)amino)methyl)-2-chloro-5-((5-cyanopyridin-3-yl)methoxy)phenoxy)methyl)-2,2′-dimethyl-[1,1′-biphenyl]-3-yl)naphthalen-2-yl)methyl)amino)-3-hydroxybutanoic acid], for which the concentration for a half-maximal effect (EC50) in assay [1] came out at 687 nM; in assay [2], 30.1 nM.
As to `COc1nc(OCc2cccc(-c3cccc(COc4nc(OC)c(CN[C@@](C)(CO)C(=O)O)cc4Br)c3C)c2C)c(Br)cc1CN[C@@](C)(CO)C(=O)O` [Example 45, (2S,2′S)-2,2′-((((((2,2′-dimethyl-[1,1′-biphenyl]-3,3′-diyl)bis(methylene))bis(oxy))bis(5-bromo-2-methoxypyridine-6,3-diyl))bis(methylene))bis(azanediyl))bis(3-hydroxy-2-methylpropanoic acid)], the results for the EC50 in assay [1] and in assay [2] were 75 nM and 166 nM, respectively.
On the same counts, the results for `COc1nc(OCc2cccc(-c3cccc(COc4nc(OC)c(CN5CC[C@@H](O)C[C@H]5C(=O)O)cc4Cl)c3C)c2C)c(Cl)cc1CN1CC[C@@H](O)C[C@H]1C(=O)O` [Example 47, (2S,2′S,4R,4′R)-1,1′-(((((2,2′-dimethyl-[1,1′-biphenyl]-3,3′-diyl)bis(methylene))bis(oxy))bis(5-chloro-2-methoxypyridine-6,3-diyl))bis(methylene))bis(4-hydroxypiperidine-2-carboxylic acid)] are 503 nM and 226 nM.
As for `COc1nc(OCc2cccc(-c3cccc(COc4nc(OC)c(CN5C[C@@H](O)C[C@H]5C(=O)O)cc4Cl)c3C)c2C)c(Cl)cc1CN1C[C@@H](O)C[C@H]1C(=O)O` [Example 48, (2S,2′S,4S,4'S)-1,1′-(((((2,2′-dimethyl-[1,1′-biphenyl]-3,3′-diyl)bis(methylene))bis(oxy))bis(5-chloro-2-methoxypyridine-6,3-diyl))bis(methylene))bis(4-hydroxypyrrolidine-2-carboxylic acid)], the half-maximal effective concentration (EC50) in assay [1] is 412 nM; in assay [2], 298 nM.
For `COc1nc(OCc2cccc(-c3cccc(COc4nc(OC)c(CNC[C@H](O)CC(=O)O)cc4Cl)c3C)c2C)c(Cl)cc1CNC[C@H](O)CC(=O)O` [Example 49, (3R,3′R)-4,4′-((((((2,2′-dimethyl-[1,1′-biphenyl]-3,3′-diyl)bis(methylene))bis(oxy))bis(5-chloro-2-methoxypyridine-6,3-diyl))bis(methylene))bis(azanediyl))bis(3-hydroxybutanoic acid)], the EC50 in assay [1] stood at 274 nM; in assay [2] it was 124 nM.
As to `COc1nc(OCc2cccc(-c3cccc(COc4nc(OC)c(CNC[C@H](O)CC(=O)O)cc4C4CC4)c3C)c2C)c(C2CC2)cc1CNC[C@H](O)CC(=O)O` [Example 54, (3R,3′R)-4,4′-((((((2,2′-dimethyl-[1,1′-biphenyl]-3,3′-diyl)bis(methylene))bis(oxy))bis(5-cyclopropyl-2-methoxypyridine-6,3-diyl))bis(methylene))bis(azanediyl))bis(3-hydroxybutanoic acid)], the EC50 was found to be 997 nM in assay [1] and 233 nM in assay [2].
On the same counts, the results for `COc1nc(OCc2cccc(-c3cccc(COc4nc(OC)c(CNC[C@@H](O)CC(=O)O)cc4C4CC4)c3C)c2C)c(C2CC2)cc1CNC[C@@H](O)CC(=O)O` [Example 55, (3S,3′S)-4,4′-((((((2,2′-dimethyl-[1,1′-biphenyl]-3,3′-diyl)bis(methylene))bis(oxy))bis(5-cyclopropyl-2-methoxypyridine-6,3-diyl))bis(methylene))bis(azanediyl))bis(3-hydroxybutanoic acid)] are 1520 nM and 315 nM.
Regarding `COc1nc(OCc2cccc(-c3cccc(COc4nc(OC)c(CN(C)CC(=O)O)cc4Cl)c3C)c2C)c(Cl)cc1CN(C)CC(=O)O` [Example 76, 2,2′-((((((2,2′-dimethyl-[1,1′-biphenyl]-3,3′-diyl)bis(methylene))bis(oxy))bis(5-chloro-2-methoxypyridine-6,3-diyl))bis(methylene))bis(methylazanediyl))diacetic acid], the EC50 in assay [1] came to 1060 nM; in assay [2] it was 83.2 nM.
With `COc1nc(OCc2cccc(-c3cccc(COc4nc(OC)c(C[N+](C)(C)CC(=O)O)cc4Cl)c3C)c2C)c(Cl)cc1C[N+](C)(C)CC(=O)O` [Example 78, 1,1′-((((2,2′-dimethyl-[1,1′-biphenyl]-3,3′-diyl)bis(methylene))bis(oxy))bis(5-chloro-2-methoxypyridine-6,3-diyl))bis(N-(carboxymethyl)-N,N-dimethylmethanaminium)], the EC50 in assay [1] is 395 nM; in assay [2], 187 nM.
With `Cc1c(COc2cc(OCc3cncc(C#N)c3)c(CNC[C@@H](O)CC(=O)O)cc2Cl)cccc1-c1cccc(-c2ccc(OCCNC[C@@H](O)CC(=O)O)c(C(F)(F)F)c2)c1C` [Example 94, (S)-4-((4-((4″-(2-(((S)-3-carboxy-2-hydroxypropyl)amino)ethoxy)-2,2′-dimethyl-3″-(trifluoromethyl)-[1,1′:3′,1″-terphenyl]-3-yl)methoxy)-5-chloro-2-((5-cyanopyridin-3-yl)methoxy)benzyl)amino)-3-hydroxybutanoic acid], the EC50 in assay [1] is 210 nM; in assay [2], 228 nM.
On the same counts, the results for `Cc1c(COc2cc(OCc3cncc(C#N)c3)c(CNC[C@@H](O)CC(=O)O)cc2Cl)cccc1-c1cccc(-c2ccc(OCCNC[C@@H](O)CC(=O)O)cc2F)c1C` [Example 111, (S)-4-((4-((4″-(2-(((S)-3-carboxy-2-hydroxypropyl)amino)ethoxy)-2″-fluoro-2,2′-dimethyl-[1,1′:3′,1″-terphenyl]-3-yl)methoxy)-5-chloro-2-((5-cyanopyridin-3-yl)methoxy)benzyl)amino)-3-hydroxybutanoic acid] are 129 nM and 45.7 nM.
On to `COc1nc(OCc2cccc(-c3cccc(COc4nc(OC)c(CNCCCC(N)=O)cc4Br)c3C)c2C)c(Br)cc1CNCCCC(N)=O` [Example 116, 4,4′-((((((2,2′-dimethyl-[1,1′-biphenyl]-3,3′-diyl)bis(methylene))bis(oxy))bis(5-bromo-2-methoxypyridine-6,3-diyl))bis(methylene))bis(azanediyl))dibutanamide], for which the EC50 is 702 nM in assay [1] and 134 nM in assay [2].
The like results for `COc1nc(OCc2cccc(-c3cccc(COc4nc(OC)c(CN(CCCC(N)=O)CC(=O)O)cc4Br)c3C)c2C)c(Br)cc1CNCCCC(N)=O` [Example 118, N-(4-amino-4-oxobutyl)-N-((6-((3′-(((5-(((4-amino-4-oxobutyl)amino)methyl)-3-bromo-6-methoxypyridin-2-yl)oxy)methyl)-2,2′-dimethyl-[1,1′-biphenyl]-3-yl)methoxy)-5-bromo-2-methoxypyridin-3-yl)methyl)glycine] were, in that order, 823 nM and 169 nM.
On the same counts, the results for `Cc1c(COc2nc(OCc3cc(C#N)cc(C#N)c3)c(CNC[C@@H](O)CC(=O)O)cc2Cl)cccc1-c1cccc(COc2nc(OCc3cc(C#N)cc(C#N)c3)c(CNC[C@@H](O)CC(=O)O)cc2Cl)c1C` [Example 122, (3S,3′S)-4,4′-((((((2,2′-dimethyl-[1,1′-biphenyl]-3,3′-diyl)bis(methylene))bis(oxy))bis(5-chloro-2-((3,5-dicyanobenzyl)oxy)pyridine-6,3-diyl))bis(methylene))bis(azanediyl))bis(3-hydroxybutanoic acid)] are 79 nM and 192 nM.
On the same counts, the results for `Cc1c(COc2nc(OCC3CCO3)c(CNC[C@@H](O)CC(=O)O)cc2Br)cccc1-c1cccc(COc2nc(OCC3CCO3)c(CNC[C@@H](O)CC(=O)O)cc2Br)c1C` (stereo partly drawn) [Example 131, (3S,3′S)-4,4′-((((((2,2′-dimethyl-[1,1′-biphenyl]-3,3′-diyl)bis(methylene))bis(oxy))bis(5-bromo-2-(oxetan-2-ylmethoxy)pyridine-6,3-diyl))bis(methylene))bis(azanediyl))bis(3-hydroxybutanoic acid)] are 964 nM and 231 nM.
For the molecule `CNC(=O)CCOc1nc(OCc2cccc(-c3cccc(COc4nc(OCCC(=O)NC)c(CNC[C@@H](O)CC(=O)O)cc4Cl)c3C)c2C)c(Cl)cc1CNC[C@@H](O)CC(=O)O` [Example 134, (3S,3′S)-4,4′-((((((2,2′-dimethyl-[1,1′-biphenyl]-3,3′-diyl)bis(methylene))bis(oxy))bis(5-chloro-2-(3-(methylamino)-3-oxopropoxy)pyridine-6,3-diyl))bis(methylene))bis(azanediyl))bis(3-hydroxybutanoic acid)], the EC50 was 660 nM in assay [1] and 112 nM in assay [2].
